Source: ChEMBL document CHEMBL5346924, “Optically activated MEK1/2 inhibitors (Opti-MEKi) as potential antimelanoma agents” (Eur J Med Chem, 2023)
Calls of active or inactive are those of the source. The calls are words filed in the database; no cut-off is given here.

Tests used:
[1] = target: T1, Dual specificity mitogen-activated protein kinase kinase 1 (Homo sapiens, UniProt Q02750); experiment: Inhibition of MEK1 (unknown origin) incubated for 1 hrs in the presence of ATP by FRET-based Z'-Lyte assay
A-375 [2] = experiment: Antiproliferative activity against human A-375 cells harboring BRAF V600E mutant assessed as cell growth inhibition incubated for 72 hrs in the absence of UV irradiation by CellTiter-Glo luminescent assay; type: functional; conditions: A-375, light or radiation study
A-375 [3] = experiment: Antiproliferative activity against human A-375 cells harboring BRAF V600E mutant assessed as cell growth inhibition preincubated with compound for 1 hrs followed by UV irradiation for 3 mins and measured 72 hrs post compound treatment by CellTiter-Glo luminescent assay; type: functional; conditions: A-375, light or radiation study
A-375 [4] = experiment: Antiproliferative activity against human A-375 cells harboring BRAF V600E mutant assessed as cell growth inhibition preincubated with compound for 1 hrs followed by UV irradiation for 5 mins and measured 72 hrs post compound treatment by CellTiter-Glo luminescent assay; type: functional; conditions: A-375, light or radiation study
HCT-116 [5] = experiment: Antiproliferative activity against human HCT-116 cells harboring KRAS G13D mutant assessed as cell growth inhibition incubated for 72 hrs in the absence of UV irradiation by CellTiter-Glo luminescent assay; type: functional; conditions: HCT-116, light or radiation study
HCT-116 [6] = experiment: Antiproliferative activity against human HCT-116 cells harboring KRAS G13D mutant assessed as cell growth inhibition preincubated with compound for 1 hrs followed by UV irradiation for 5 mins and measured 72 hrs post compound treatment by CellTiter-Glo luminescent assay; type: functional; conditions: HCT-116, light or radiation study
A549 = experiment: Antiproliferative activity against human A549 cells harboring KRAS […] mutant assessed as cell growth inhibition incubated for 72 hrs in the absence of UV irradiation by CellTiter-Glo luminescent assay; type: functional; conditions: A549, light or radiation study
[7] = Cytotoxicity against HEK293T cells assessed as cell growth inhibition incubated for 72 hrs by CellTiter-Glo luminescent assay; type: toxicity, cell-based, HEK-293T; conditions: human
A-375 [8] = experiment: Inhibition of colony formation in human A-375 cells at 10 to 300 nM incubated for 10 days by crystal violet staining based analysis; type: functional, cell-based; conditions: dose 10-300 nM, time 10.0 day
A-375 [9] = experiment: Inhibition of colony formation in human A-375 cells preincubated with compound for 1 hrs followed by 365 nm light irradiation for 5 mins and measured for 10 days by crystal violet staining based analysis; type: functional, cell-based; conditions: dose 10-300 nM, time 14465.0 min
[10] = test system: Serine/threonine-protein kinase B-raf (Homo sapiens), P15056 [V600E]; experiment: Inhibition of recombinant human BRAF V600E mutant at 1 uM
[11] = target: T1, Dual specificity mitogen-activated protein kinase kinase 1; experiment: Inhibition of recombinant human MEK1 at 1 uM
[12] = target: Ribosomal protein S6 kinase alpha-1 (Homo sapiens) (UniProt Q15418); experiment: Inhibition of recombinant human RSK1 at 1 uM
[13] = target: RAC-alpha serine/threonine-protein kinase (Homo sapiens) (UniProt P31749); experiment: Inhibition of recombinant human AKT1 at 1 uM
Homo sapiens = species: Homo sapiens; experiment: Inhibition of recombinant human PI3K at 1 uM
[14] = target: Epidermal growth factor receptor (Homo sapiens) (UniProt P00533); experiment: Inhibition of recombinant human EGFR at 1 uM
[15] = target: Fibroblast growth factor receptor 1 (Homo sapiens) (UniProt P11362); experiment: Inhibition of recombinant human FGFR1 at 1 uM
[16] = target: Mitogen-activated protein kinase; ERK1/ERK2 (Homo sapiens, UniProt P27361+P28482); experiment: Inhibition of ERK1/2 phosphorylation in human A-375 cells upto 10 uM incubated for 1 hrs in the absence of UV irradiation by Western blot analysis; type: cell-based
A-375 [17] = experiment: Inhibition of MEK/ERK/RSK signaling in human A-375 cells assessed as inhibition of ERK phosphorylation at 5 nM in the presence of 365 nm light irradiation for 30 sec to 5 min by Western blot analysis; type: cell-based
A-375 [18] = experiment: Inhibition of MEK/ERK/RSK signaling in human A-375 cells assessed as inhibition of RSK phosphorylation at 5 nM in the presence of 365 nm light irradiation for 30 sec to 5 min by Western blot analysis; type: cell-based
[19] = Stability in human blood plasma assessed as half-life; type: ADME, cell-free
[20] = Metabolic stability in human liver microsomes assessed as parent compound remaining measured after 1 hrs in the presence of NADPH regenerating system; type: ADME, Microsome; conditions: read-out: Stability
[21] = Metabolic stability in human liver microsomes assessed as parent compound remaining measured after 1 hrs in the absence of NADPH regenerating system; type: ADME, Microsome; conditions: read-out: Stability
[22] = Metabolic stability in human liver microsomes assessed as intrinsic clearance in the presence of NADPH regenerating system; type: ADME, Microsome; conditions: read-out: CLH
CYP2C9 = CYP2C9 (Homo sapiens, UniProt P11712); experiment: Inhibition of CYP2C9 in human microsomes at 10 uM in the presence of NADPH relative to control; type: ADME, Microsome
CYP2D6 = CYP2D6 (Homo sapiens, UniProt P10635); experiment: Inhibition of CYP2D6 in human microsomes at 10 uM in the presence of NADPH relative to control; type: ADME, Microsome
A-375 [23] = experiment: Antiproliferative activity against CM-Dil labelled human A-375 cells xenografted in Zebra fish AB assessed as suppression of tumor growth by measuring red fluorescence preincubated with compound followed by 365 nm light irradiation for 5 mins and measured after 48 hrs by fluorescence based analysis; type: functional, cell-based; conditions: dose 45-90 pM
[24] = Photoactivation of the compound assessed as photocleavage by measuring decay half-life in the presence of 365 nm UV irradiation by HPLC based LC-MS analysis
[25] = Photoactivation of the compound assessed as photocleavage in the presence of 365 nm UV irradiation by HPLC based LC-MS analysis
[26] = Selectivity ratio of GI50 for antiproliferative activity against human A-375 cells harboring BRAF V600E mutant in the absence of UV irradiation to GI50 for antiproliferative activity against human A-375 cells harboring BRAF V600E mutant in the presence of UV irradiation for 5 mins; type: functional

T1 sequence (Q02750 whole entry): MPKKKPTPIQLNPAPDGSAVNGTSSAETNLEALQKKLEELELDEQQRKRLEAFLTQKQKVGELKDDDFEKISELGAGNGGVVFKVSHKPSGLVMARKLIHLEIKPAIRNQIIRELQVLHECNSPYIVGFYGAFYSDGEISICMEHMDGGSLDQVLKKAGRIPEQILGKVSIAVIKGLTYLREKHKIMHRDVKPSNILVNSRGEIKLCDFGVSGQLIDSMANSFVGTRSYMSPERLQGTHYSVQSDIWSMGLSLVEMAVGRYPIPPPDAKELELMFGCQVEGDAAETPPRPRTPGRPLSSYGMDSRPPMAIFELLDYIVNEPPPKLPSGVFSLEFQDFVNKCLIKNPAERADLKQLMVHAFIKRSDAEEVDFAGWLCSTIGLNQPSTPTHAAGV
Chain of CYP2C9 (P11712 whole entry): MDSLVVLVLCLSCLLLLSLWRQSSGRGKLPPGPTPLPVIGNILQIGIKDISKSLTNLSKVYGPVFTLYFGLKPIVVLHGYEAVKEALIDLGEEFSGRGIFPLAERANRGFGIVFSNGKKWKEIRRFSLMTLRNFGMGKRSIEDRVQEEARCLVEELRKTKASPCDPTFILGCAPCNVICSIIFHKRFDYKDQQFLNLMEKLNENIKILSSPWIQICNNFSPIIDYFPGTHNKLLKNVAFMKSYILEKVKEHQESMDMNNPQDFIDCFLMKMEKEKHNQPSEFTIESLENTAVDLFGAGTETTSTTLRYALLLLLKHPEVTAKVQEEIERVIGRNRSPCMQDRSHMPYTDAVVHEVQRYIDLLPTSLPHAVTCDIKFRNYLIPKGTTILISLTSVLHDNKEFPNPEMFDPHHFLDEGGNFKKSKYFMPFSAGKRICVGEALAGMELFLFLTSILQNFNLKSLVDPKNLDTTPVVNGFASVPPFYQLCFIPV
Chain of Fibroblast growth factor receptor 1 (Homo sapiens) (P11362 22-822 limits assumed): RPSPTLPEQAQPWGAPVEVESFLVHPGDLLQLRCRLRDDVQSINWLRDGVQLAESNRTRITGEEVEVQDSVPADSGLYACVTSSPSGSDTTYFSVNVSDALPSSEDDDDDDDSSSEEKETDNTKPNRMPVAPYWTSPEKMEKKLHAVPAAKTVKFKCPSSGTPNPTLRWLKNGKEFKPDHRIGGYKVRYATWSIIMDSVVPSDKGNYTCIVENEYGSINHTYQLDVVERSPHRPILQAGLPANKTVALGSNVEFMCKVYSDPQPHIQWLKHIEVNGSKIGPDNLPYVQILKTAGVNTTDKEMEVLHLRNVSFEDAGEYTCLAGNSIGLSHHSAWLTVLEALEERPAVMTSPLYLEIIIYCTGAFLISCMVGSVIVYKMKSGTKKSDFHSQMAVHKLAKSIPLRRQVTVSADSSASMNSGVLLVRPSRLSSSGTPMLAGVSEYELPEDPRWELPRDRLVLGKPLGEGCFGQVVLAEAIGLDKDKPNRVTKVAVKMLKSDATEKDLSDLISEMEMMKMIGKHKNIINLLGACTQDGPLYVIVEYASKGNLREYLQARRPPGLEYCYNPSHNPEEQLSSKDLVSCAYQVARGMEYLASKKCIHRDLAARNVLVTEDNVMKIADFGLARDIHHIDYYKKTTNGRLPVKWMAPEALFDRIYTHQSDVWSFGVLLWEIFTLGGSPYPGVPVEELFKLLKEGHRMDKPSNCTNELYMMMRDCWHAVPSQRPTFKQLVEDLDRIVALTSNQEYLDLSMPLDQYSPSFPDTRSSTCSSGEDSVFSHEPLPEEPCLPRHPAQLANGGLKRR
Chain of CYP2D6 (P10635 whole entry): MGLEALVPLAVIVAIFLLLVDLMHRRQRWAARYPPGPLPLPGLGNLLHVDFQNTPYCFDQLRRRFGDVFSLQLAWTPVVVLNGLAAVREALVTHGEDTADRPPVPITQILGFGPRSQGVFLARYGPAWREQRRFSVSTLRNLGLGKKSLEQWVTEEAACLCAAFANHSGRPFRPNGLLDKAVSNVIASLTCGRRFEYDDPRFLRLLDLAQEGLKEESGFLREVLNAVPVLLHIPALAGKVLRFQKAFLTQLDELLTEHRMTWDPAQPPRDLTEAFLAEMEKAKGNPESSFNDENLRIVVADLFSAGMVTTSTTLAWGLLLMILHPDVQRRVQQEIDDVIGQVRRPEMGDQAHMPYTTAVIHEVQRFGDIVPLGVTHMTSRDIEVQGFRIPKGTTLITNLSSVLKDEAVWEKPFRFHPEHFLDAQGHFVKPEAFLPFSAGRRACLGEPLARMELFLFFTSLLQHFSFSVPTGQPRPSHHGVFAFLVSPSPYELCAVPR
Chain of Ribosomal protein S6 kinase alpha-1 (Homo sapiens) (Q15418 whole entry): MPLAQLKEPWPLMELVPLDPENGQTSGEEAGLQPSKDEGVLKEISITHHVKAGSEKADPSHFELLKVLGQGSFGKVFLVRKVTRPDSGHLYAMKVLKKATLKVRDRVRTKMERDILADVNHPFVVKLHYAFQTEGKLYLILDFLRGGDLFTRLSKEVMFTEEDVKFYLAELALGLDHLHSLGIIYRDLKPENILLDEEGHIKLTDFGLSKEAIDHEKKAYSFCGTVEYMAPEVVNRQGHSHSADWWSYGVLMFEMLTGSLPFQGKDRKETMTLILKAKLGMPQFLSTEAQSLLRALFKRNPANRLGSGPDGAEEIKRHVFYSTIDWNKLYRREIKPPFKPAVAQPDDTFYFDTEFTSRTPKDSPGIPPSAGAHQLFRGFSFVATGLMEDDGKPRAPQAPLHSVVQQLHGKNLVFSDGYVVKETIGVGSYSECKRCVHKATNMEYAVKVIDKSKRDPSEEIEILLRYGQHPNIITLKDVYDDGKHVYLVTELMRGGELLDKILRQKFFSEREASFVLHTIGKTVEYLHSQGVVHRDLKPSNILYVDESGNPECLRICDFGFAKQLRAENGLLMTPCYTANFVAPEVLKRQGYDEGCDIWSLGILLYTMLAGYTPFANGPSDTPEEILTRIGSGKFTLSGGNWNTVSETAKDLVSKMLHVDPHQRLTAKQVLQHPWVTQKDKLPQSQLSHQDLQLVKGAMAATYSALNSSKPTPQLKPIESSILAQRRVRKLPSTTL
Chain of Mitogen-activated protein kinase; ERK1/ERK2 (P27361 whole entry, looked up): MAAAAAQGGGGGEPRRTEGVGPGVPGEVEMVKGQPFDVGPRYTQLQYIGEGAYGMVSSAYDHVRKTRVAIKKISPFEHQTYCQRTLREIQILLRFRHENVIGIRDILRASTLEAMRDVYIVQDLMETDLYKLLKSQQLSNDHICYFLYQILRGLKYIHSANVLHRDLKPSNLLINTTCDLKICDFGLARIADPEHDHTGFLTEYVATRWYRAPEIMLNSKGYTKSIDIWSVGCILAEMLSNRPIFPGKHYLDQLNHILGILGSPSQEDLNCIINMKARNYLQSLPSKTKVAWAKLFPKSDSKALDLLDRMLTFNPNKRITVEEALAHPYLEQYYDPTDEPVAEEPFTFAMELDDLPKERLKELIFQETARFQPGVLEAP
Chain of Mitogen-activated protein kinase; ERK1/ERK2 (P28482 whole entry, looked up): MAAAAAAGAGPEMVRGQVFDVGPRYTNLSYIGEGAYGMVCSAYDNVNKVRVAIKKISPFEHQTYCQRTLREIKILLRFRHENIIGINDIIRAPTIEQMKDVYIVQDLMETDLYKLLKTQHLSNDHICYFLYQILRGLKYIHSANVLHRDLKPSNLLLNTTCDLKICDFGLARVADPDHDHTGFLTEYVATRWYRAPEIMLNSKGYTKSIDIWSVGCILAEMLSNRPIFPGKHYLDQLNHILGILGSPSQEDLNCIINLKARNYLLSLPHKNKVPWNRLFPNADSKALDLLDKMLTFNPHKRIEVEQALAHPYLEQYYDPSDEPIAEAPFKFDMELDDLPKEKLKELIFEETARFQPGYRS
Chain of Serine/threonine-protein kinase B-raf (Homo sapiens), P15056 [V600E] (P15056 whole entry V600E): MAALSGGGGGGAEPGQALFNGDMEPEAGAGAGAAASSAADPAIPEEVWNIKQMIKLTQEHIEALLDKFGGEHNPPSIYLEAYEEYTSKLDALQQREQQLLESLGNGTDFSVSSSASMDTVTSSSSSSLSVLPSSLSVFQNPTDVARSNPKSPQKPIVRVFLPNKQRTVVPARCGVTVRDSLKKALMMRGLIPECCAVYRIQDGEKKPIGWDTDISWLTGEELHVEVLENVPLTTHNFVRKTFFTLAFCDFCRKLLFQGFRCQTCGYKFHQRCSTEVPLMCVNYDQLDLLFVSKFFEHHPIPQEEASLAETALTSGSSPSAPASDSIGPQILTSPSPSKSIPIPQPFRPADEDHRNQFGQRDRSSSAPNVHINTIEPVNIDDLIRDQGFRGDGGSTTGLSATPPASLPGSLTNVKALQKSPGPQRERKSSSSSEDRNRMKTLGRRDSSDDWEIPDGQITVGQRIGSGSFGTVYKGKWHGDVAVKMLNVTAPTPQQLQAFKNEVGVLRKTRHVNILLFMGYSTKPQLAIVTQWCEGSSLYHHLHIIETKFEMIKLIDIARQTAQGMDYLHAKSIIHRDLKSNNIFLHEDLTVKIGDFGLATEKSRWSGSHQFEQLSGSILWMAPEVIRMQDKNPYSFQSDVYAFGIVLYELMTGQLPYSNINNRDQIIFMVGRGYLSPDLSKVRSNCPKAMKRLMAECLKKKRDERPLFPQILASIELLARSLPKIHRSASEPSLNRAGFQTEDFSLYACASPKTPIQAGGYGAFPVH
Chain of RAC-alpha serine/threonine-protein kinase (Homo sapiens) (P31749 whole entry): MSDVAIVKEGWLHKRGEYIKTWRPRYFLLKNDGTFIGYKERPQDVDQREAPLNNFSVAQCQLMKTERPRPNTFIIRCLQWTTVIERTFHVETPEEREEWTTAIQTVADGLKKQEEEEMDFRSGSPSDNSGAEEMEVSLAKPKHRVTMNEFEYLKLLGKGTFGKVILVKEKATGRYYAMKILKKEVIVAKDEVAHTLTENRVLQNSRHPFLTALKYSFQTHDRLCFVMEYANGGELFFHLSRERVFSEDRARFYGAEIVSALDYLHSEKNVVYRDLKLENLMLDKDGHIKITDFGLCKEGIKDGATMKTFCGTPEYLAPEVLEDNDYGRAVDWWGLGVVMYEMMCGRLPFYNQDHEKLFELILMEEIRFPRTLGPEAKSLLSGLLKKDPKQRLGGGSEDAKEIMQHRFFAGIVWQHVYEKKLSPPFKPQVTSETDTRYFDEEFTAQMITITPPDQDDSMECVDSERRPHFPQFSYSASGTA

Q: Which IC50 [1] does the source give for `COc1cc(C(C)O/C(=N\OC[C@H](O)CO)c2ccc(F)c(F)c2Nc2ccc(I)cc2F)c([N+](=O)[O-])cc1OC` (stereo not given in full) here?
A: > 30 µM

Q: What about the GI50 (A-375 [2]) of the same molecule?
A: 12.7 µM

Q: What about the GI50 (A-375 [3]) of the same molecule?
A: 2.95 nM

Q: What about the GI50 (A-375 [4]) of the same molecule?
A: 2.13 nM

Q: And the GI50 (HCT-116 [5])?
A: > 10 µM

Q: And the GI50 (HCT-116 [6])?
A: 60 nM

Q: And the GI50 (A549)?
A: > 10 µM

Q: What about the GI50 at 72 h [7] of the same molecule?
A: > 10 µM

Q: And the inhibition (A-375 [8])?
A: inactive

Q: What about the inhibition (A-375 [9]) of the same molecule?
A: Active

Q: What about the inhibition [10] of the same molecule?
A: inactive

Q: And the inhibition [11]?
A: inactive

Q: And the inhibition [12]?
A: inactive

Q: And the inhibition [13]?
A: inactive

Q: And the inhibition (Homo sapiens)?
A: inactive

Q: What about the inhibition [14] of the same molecule?
A: inactive

Q: What about the inhibition [15] of the same molecule?
A: inactive

Q: What about the inhibition [16] of the same molecule?
A: inactive

Q: And the inhibition (A-375 [17])?
A: Active

Q: And the inhibition (A-375 [18])?
A: Active

Q: What about the half-life [19] of the same molecule?
A: > 289 min

Q: And the remaining at 1 h [20]?
A: 13.6%

Q: What about the remaining at 1 h [21] of the same molecule?
A: 84.5%

Q: And the CLint scaled [22]?
A: 51.4 mL/min/kg

Q: What about the inhibition at 10 µM (CYP2C9) of the same molecule?
A: 63.3%

Q: And the inhibition at 10 µM (CYP2D6)?
A: 21.5%

Q: What about the Activity (A-375 [23]) of the same molecule?
A: Dose-Dependent Effect

Q: And the half-life [24]?
A: 1.41 min

Q: What about the Drug metabolism [25] of the same molecule?
A: Metabolite_Detected

Q: And the RatioGI50 [26]?
A: >5000
